Test results taken from patent US5364944A, “Substituted benzoylbenzene-, biphenyl- and 2-oxazole- alkanoic acid compounds” (American Home Products Corporation, priority 1993, dated 1994).

Assays:
LTB4 = test: Reverse passive Arthus pleurisy assay, inflammatory mediator release: LTB4; assay type: in vivo, rat (male Lewis); details: 25 mg/kg p.o., 3 hours before challenge
[1] = tested on: 5-lipoxygenase in human whole blood; test: Inhibition of 5-lipoxygenase in human whole blood (LTB4); assay type: cell-based
Method in brief: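 Donor whole blood was preincubated with compound (0.1% final DMSO) 10 min at 37° C, then stimulated with 30 μM A23187 for 20 min at 27° C and stopped with EGTA on ice. Plasma LTB4 quantified by RIA or ELISA as ng/10^6 neutrophils; effects given as percent change from control.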

CC(C(=O)N(C)O)c1ccc(-c2ccc(OCc3csc(-c4ccccc4)n3)cc2)cc1 (stereo not drawn) [Example 21, N-Hydroxy-N,α-dimethyl-4'-[(2-phenylthiazol-4-yl)methoxy][1,1'-biphenyl]-4-acetamide]
% Inhibition of LTB4 Synthesis (LTB4): 8%
IC50 [1]: 7.8 µM
% Inhibition of LTB4 ([1]; at 25 μM): 85%
